Test results as given in ChEMBL document CHEMBL5532652, “Design and synthesis of pterostilbene derivatives bearing triazole moiety that might treat DSS-induced colitis in mice through modulation of NF-κB/MAPK signaling pathways” (Eur J Med Chem, 2024).
Activity calls are given as the source filed them. No cut-off for these calls is given here.

Columns and labels:
[1] = Toxicity in C57BL/6 mouse assessed as body weight loss at 20 mg/kg, po measured for 7 days; type: organism-based; details: in vivo, 168 h, time 7 day
RAW264.7 [2] = experiment: Anti-inflammatory activity in mouse RAW264.7 cells assessed as inhibition of LPS-induced NO production at 10 uM incubated pretreated with compound for 1 hr followed by LPS-induction and measured after 24 hrs by Griess reagent based assay relative to control; type: functional; details: time 25 hrs
Mus musculus = experiment: Anti-inflammatory activity against DSS-induced acute colitis C57BL/6J mouse model assessed as reduction in MPO level in colon at 10 to 20 mg/kg, po measured for 7 days; type: functional, organism-based; details: dose 10-20 mg/kg, time 7.0 day
[3] = Acute toxicity in female C57BL/6 mouse assessed as effect on body weight loss at 1000 to 2000 mg/kg, po measured for 14 days; type: organism-based; details: in vivo, 336 h, dose 1000-2000 mg/kg, time 14 day
[4] = Acute toxicity in female C57BL/6 mouse assessed as lethargy at 1000 to 2000 mg/kg, po measured for 14 days; type: organism-based; details: in vivo, 336 h, dose 1000-2000 mg/kg, time 14 day
RAW264.7 [5] = experiment: Anti-inflammatory activity against LPS-stimulated mouse RAW264.7 cells assessed as reduction in LPS-induced COX-2 level preincubated with compound for 1 hr followed by LPS stimulation and measured after 24 hrs by Western blot analysis; type: functional, cell-based; details: dose 0.5-2 µM, time 25.0 hrs
RAW264.7 [6] = experiment: Anti-inflammatory activity in LPS-stimulated mouse RAW264.7 cells assessed as inhibition of p38 phosphorylation preincubated with compound for 1 hr followed by LPS stimulation and measured after 30 mins by Western blot analysis; type: functional, cell-based; details: dose 0.5-2 µM, time 1.5 hrs
[7] = Acute toxicity in male C57BL/6 mouse assessed as hyperactivity at 1000 to 2000 mg/kg, po measured for 14 days; type: organism-based; details: in vivo, 336 h, dose 1000-2000 mg/kg, time 14 day
[8] = Toxicity in C57BL/6 mouse assessed as reduction in disease index at 20 mg/kg, po measured for 7 days; type: organism-based; details: in vivo, 168 h, time 7 day
RAW264.7 [9] = experiment: Anti-inflammatory activity in LPS-stimulated mouse RAW264.7 cells assessed as inhibition of IkappaB phosphorylation at 0.5 to 2 uM preincubated with compound for 1 hr followed by LPS stimulation and measured after 30 mins by Western blot analysis; type: functional, cell-based; details: dose 0.5-2 µM, time 1.5 hrs

Question: Which Activity [1] does the source give for `C=CCOc1ccc(/C=C/c2cc(OC)cc(OC)c2-c2cnnn2C(=O)NCCCl)cc1` here?
Answer: Toxic

Question: What about the inhibition at 10 µM (RAW264.7 [2]) of the same molecule?
Answer: 98%

Question: What about the Activity (Mus musculus) of the same molecule?
Answer: Active

Question: And the Activity [3]?
Answer: Non-Toxic

Question: And the Activity [4]?
Answer: Non-Toxic

Question: What about the Activity (RAW264.7 [5]) of the same molecule?
Answer: Dose-Dependent Effect

Question: And the Activity (RAW264.7 [6])?
Answer: Dose-Dependent Effect

Question: What about the Activity [7] of the same molecule?
Answer: Non-Toxic

Question: And the Activity [8]?
Answer: Non-Toxic

Question: What about the Activity (RAW264.7 [9]) of the same molecule?
Answer: Active
